The target in test [1] is Vascular endothelial growth factor receptor 2 (Homo sapiens, UniProt P35968). As to the kind of experiment: Inhibitory Activities of the Compounds on VEGFR2. The protocol:
Detect compounds on VEGFR2 (KDR) by mobility shift assay. The initial test concentration of a compound was 1000 nM, 3 times dilution, 10 concentrations, and detection in duplicate. Nintedanib (Selleckchem, Cat. S1010) was used as the positive control compound. The operation method was briefly described as follows: kinase VEGFR2 (Carna, Cat. 08-191) at the final concentration of 0.5 nM and the test compound were mixed in the Optiplate-384F well plate and incubated for 10 minutes at room temperature. Then, ATP at a final concentration of 95 μM and 3 μM Kinase substrate 22 (Gill Biochemical (glbiochem), Cat. 112393) were added. After mixing, react at room temperature for 30 minutes. Add stop detection solution to terminate the reaction and read the conversion rate with Caliper EZ ReaderlI.

Test [2] deals with T1, Histone deacetylase 6 (Homo sapiens, UniProt Q9UBN7).
T1 sequence (Q9UBN7 whole entry): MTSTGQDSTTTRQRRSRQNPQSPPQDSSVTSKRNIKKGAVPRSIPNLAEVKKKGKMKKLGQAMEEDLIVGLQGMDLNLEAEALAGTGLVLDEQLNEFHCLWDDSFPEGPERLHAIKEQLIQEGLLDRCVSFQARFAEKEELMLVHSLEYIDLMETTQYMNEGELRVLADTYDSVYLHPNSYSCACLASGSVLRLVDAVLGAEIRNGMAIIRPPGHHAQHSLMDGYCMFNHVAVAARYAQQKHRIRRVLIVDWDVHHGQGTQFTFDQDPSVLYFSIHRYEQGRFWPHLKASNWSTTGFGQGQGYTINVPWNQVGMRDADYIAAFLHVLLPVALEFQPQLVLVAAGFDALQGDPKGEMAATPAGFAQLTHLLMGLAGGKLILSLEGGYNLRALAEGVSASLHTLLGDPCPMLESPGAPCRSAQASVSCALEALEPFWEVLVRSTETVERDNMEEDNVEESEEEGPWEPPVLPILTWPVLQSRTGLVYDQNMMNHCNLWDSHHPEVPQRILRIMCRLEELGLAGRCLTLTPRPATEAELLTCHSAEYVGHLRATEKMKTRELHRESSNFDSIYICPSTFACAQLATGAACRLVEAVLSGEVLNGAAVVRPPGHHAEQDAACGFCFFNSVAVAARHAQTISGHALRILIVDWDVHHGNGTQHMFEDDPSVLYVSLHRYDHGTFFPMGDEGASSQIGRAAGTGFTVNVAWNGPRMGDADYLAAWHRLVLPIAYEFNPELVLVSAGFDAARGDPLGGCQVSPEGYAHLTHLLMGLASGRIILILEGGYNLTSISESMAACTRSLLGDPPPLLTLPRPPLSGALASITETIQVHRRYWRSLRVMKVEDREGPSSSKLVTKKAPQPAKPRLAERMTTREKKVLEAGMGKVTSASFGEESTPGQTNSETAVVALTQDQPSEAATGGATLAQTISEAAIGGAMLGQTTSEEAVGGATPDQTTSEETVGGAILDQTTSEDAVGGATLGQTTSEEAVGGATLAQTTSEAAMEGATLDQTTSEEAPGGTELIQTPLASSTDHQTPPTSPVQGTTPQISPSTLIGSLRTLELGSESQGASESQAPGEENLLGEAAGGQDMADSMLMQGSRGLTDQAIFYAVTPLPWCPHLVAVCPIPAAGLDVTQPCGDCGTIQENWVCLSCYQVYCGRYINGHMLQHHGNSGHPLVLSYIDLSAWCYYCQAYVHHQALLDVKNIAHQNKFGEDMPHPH
As to the kind of experiment: Inhibitory Activity of the Compounds on HDAC6. The procedure: Prepare a 10 mM stock solution of a compound with DMSO. Take 10 μl of stock solution and dilute with 90 μl DMSO to become a 1 mM working solution. […] Add 30 μl trypsin/SAHA mixture (20 mM Hepes pH 8.0, 100 mM NaCl, 10 mM SAHA, 0.01 mg/ml trypsin), incubate at 23° C. for 60 minutes to terminate the reaction. Finally, read fluorescence data by Envision (390 nm excitation, 460 nm emission). […] Finally, analyze the data by XLfit5 software and calculate the IC50 value of the compound. Vorinostat (SAHA) was a positive reference compound.

Usually IC50 stands for the concentration that gives 50% inhibition. A high value points to weaker potency.

The structures appear in SMILES notation.

Chain of Vascular endothelial growth factor receptor 2 (P35968 whole entry): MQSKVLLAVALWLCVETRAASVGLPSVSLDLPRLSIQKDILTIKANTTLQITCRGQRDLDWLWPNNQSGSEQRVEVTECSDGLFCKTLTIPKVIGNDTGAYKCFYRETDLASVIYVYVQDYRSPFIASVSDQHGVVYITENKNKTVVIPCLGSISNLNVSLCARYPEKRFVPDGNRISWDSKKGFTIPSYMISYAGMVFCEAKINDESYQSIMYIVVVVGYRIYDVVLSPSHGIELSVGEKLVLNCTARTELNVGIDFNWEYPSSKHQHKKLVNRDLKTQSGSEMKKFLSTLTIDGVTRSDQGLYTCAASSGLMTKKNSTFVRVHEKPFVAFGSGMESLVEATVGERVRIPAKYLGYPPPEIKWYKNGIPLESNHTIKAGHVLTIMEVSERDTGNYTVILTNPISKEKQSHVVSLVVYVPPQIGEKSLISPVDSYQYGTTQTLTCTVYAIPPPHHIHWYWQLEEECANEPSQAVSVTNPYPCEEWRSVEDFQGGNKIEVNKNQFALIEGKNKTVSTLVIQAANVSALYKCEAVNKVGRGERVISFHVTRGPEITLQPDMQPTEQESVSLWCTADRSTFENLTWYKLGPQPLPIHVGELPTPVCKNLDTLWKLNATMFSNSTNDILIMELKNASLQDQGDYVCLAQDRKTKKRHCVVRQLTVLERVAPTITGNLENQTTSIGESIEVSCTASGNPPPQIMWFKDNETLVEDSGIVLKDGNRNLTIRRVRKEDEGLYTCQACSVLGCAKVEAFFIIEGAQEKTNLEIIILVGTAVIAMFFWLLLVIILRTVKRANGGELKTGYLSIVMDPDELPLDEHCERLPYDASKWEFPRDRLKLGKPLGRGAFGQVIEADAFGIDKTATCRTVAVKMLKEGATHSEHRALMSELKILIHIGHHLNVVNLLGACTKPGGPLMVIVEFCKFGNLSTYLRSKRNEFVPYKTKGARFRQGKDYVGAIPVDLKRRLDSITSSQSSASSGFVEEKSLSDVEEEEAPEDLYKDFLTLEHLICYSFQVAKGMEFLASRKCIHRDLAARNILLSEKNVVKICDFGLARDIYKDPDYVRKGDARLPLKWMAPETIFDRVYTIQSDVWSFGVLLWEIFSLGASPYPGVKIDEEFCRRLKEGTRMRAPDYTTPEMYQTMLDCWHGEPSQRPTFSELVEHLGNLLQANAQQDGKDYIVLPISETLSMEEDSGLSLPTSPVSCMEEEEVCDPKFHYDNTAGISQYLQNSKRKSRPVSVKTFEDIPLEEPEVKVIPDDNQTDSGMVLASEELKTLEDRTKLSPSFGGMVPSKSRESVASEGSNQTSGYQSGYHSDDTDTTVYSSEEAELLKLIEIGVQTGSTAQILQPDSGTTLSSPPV

Regarding `COc1cc2c(Oc3ccc(NC(=O)C4(C(=O)Nc5ccc(F)cc5)CC4)cc3F)ccnc2cc1OCCCNCCCSC(C)=O` [US12304898, Example 50], the IC50 in test [1] turned out to be 6.6 nM.
Still for that read-out and setting: with `COc1cc2c(Oc3ccc(NC(=O)C4(C(=O)Nc5ccc(F)cc5)CC4)cc3F)ccnc2cc1OCCCNCCCS` [US12304898, Example 51] the figure was 7.7 nM; with `COc1cc2c(Oc3ccc(NC(=O)C4(C(=O)Nc5ccc(F)cc5)CC4)cc3F)ccnc2cc1OCCCN(C)CCCSC(C)=O` [US12304898, Example 52], 3.2 nM; with `COc1cc2c(Oc3ccc(NC(=O)C4(C(=O)Nc5ccc(F)cc5)CC4)cc3F)ccnc2cc1OCCCN(C)CCCS` [US12304898, Example 53], 4.7 nM.
For `COc1cc2c(Oc3ccc(NC(=O)C4(C(=O)Nc5ccc(F)cc5)CC4)cc3F)ccnc2cc1OCCCCCNC(=O)CSC(C)=O` [US12304898, Example 57], the concentration for half-maximal inhibition (IC50) amounted to 20 nM in test [1] and 48.3 nM in test [2].
As for `COc1cc2c(Oc3ccc(NC(=O)C4(C(=O)Nc5ccc(F)cc5)CC4)cc3F)ccnc2cc1OCCCCCNC(=O)CS` [US12304898, Example 58], the IC50 was 25 nM in test [1] and 15.4 nM in test [2].
For the compound `COc1cc2c(Oc3ccc(NC(=O)C4(C(=O)Nc5ccc(F)cc5)CC4)cc3F)ccnc2cc1OCCCCNC(=O)CSC(C)=O` [US12304898, Example 61], the IC50 amounted to 12 nM in test [1] and 29.9 nM in test [2].
In the case of `COc1cc2c(Oc3ccc(NC(=O)C4(C(=O)Nc5ccc(F)cc5)CC4)cc3F)ccnc2cc1OCCCCCCNC(=O)CSC(C)=O` [US12304898, Example 63], the IC50 came to 36 nM in test [1] and 97.8 nM in test [2].
As for `COc1cc2c(Oc3ccc(NC(=O)C4(C(=O)NC5CC5)CC4)cc3F)ccnc2cc1OCCCCCNC(=O)CSC(C)=O` [US12304898, Example 67], the IC50 in test [1] amounted to 30 nM.
Still for that read-out and setting: under `CC(=O)SCC(=O)NCCCCCOc1cc2nccc(Oc3ccc(NC(=O)C4(C(=O)NC5CC5)CC4)cc3F)c2cc1C(N)=O` [US12304898, Example 73] stands 45 nM.

The record behind these values is BindingDB's records for patent US12304898 (Primegene (Beijing), 2025).
